ChEMBL document CHEMBL1201862, “PubChem BioAssay data set” (2004)
The source made the active and inactive calls.

Tests used:
[1] = target: T1, Kappa-type opioid receptor (Homo sapiens, UniProt P41145); assay: SAR analysis of small molecule agonists of the kappa opioid receptor via a luminescent beta-arrestin assay. [Related pubchem assays (depositor defined):AID1777, AID1786, AID1966, AID2133, AID2136, AID2348, AID2352, AID2357, AID2359, AID2370, AID2420, AID2478, AID2491, AID2492, AID2493, AID2497, AID2498, AID2500, AID449737, AID488822, AID488842]; format: functional
Mu-type opioid receptor [2] = target: T2, Mu-type opioid receptor (Homo sapiens, UniProt P35372); assay: HTS Image-Based Screen for Agonists of the MOR Receptor. [Related pubchem assays (depositor defined):AID1777, AID1785, AID1786, AID2133]; format: functional
[3] = target: T3, Delta-type opioid receptor (Homo sapiens, UniProt P41143); assay: DOR agonists, SAR follow-up, image-based (AID 2370); format: functional
[4] = target: T1, Kappa-type opioid receptor; assay: KOR agonist analogs, imaging readout, SAR follow-up, image-based (AID 2359); format: functional
[5] = target: T3, Delta-type opioid receptor; assay: HTS Image-Based Screen for Antagonists of the DOR Receptor. [Related pubchem assays (depositor defined):AID1777, AID1785, AID1786, AID2133]; format: functional
[6] = target: T1, Kappa-type opioid receptor; format: functional
Mu-type opioid receptor [7] = target: T2, Mu-type opioid receptor; assay: MOR agonists by imaging, SAR follow-up, image-based (AID 2352); format: functional
[8] = target: T1, Kappa-type opioid receptor; format: functional; remark: listed apart in the source
[9] = target: T3, Delta-type opioid receptor; assay: HTS Image-Based Screen for Agonists of the DOR Receptor. [Related pubchem assays (depositor defined):AID1777, AID1786, AID2133]; format: functional
Mu-type opioid receptor [10] = target: T2, Mu-type opioid receptor; assay: MOR antagonists, SAR follow-up, image-based (AID 2420); format: functional;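 note: compounds added before stimulation of receptor with agonist DAMGO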
[11] = target: T3, Delta-type opioid receptor; assay: DOR antagonists, SAR follow-up, image-based (AID 2357); format: functional
[12] = target: T1, Kappa-type opioid receptor; assay: KOR antagonists by imaging, SAR follow-up, image-based (AID 2348); format: functional
[13] = target: Tyrosine-protein phosphatase non-receptor type 12 (Homo sapiens, UniProt Q05209); assay: SAR Selectivity Analysis of small molecule inhibitors of PEST using pCAP in a fluorescence assay. [Related pubchem assays (depositor defined):AID1779, AID1784, AID2135]; format: functional
Streptococcus = assay: Group A Streptococcus viability loss, dose response, counter-screen for streptokinase expression inhibitor project, luminescence, BacTiterGlo (AID 1915); format: functional, organism-based;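 note: potency for reduction of bacterial viability or growth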
[14] = inhibitors of SNCA 5'UTR-driven reporter translation, confirmation, H4 neuroglioma cells, luminescence (AID 1988); format: functional, cell-based
[15] = target: G-protein coupled receptor 55 (Homo sapiens, UniProt Q9Y2T6); assay: GPR55 antagonists, SAR follow-up, counter-screen for GPR35 antagonist project, imaging, image-based (AID 2397); format: functional
Streptokinase A = target: T4, Streptokinase A (Streptococcus pyogenes serotype M1, UniProt P10520); assay: S. pyogenes streptokinase expression inhibitors, potency, dose response, plasminogen activation absorbance, OD405 (AID 1914); format: functional, Streptococcus pyogenes M1 GAS;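 note: secreted streptokinase activity via plasminogen activation per viability signal from cell pellet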
T4 sequence (P10520 whole entry): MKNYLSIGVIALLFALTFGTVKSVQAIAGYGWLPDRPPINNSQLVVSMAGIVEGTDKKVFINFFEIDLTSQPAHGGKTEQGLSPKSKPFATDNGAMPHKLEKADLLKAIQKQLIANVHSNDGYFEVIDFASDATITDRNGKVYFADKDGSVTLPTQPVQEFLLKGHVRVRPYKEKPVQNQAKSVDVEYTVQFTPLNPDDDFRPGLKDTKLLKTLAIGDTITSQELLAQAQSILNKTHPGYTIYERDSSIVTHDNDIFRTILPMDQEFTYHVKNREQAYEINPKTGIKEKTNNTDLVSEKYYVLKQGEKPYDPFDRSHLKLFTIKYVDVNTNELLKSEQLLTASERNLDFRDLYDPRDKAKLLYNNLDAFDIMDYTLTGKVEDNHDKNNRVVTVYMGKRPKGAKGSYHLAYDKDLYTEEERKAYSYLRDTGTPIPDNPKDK

[16] = target: T5, Tyrosine-protein phosphatase non-receptor type 22 (Homo sapiens, UniProt Q9Y2R2); assay: SAR LYP1 Fluorescent Assay using OMFP substrate for In Vitro dose response studies - Set 3. [Related pubchem assays (depositor defined):AID1779, AID1784, AID2140, AID2686]; format: functional
T5 sequence (Q9Y2R2 whole entry): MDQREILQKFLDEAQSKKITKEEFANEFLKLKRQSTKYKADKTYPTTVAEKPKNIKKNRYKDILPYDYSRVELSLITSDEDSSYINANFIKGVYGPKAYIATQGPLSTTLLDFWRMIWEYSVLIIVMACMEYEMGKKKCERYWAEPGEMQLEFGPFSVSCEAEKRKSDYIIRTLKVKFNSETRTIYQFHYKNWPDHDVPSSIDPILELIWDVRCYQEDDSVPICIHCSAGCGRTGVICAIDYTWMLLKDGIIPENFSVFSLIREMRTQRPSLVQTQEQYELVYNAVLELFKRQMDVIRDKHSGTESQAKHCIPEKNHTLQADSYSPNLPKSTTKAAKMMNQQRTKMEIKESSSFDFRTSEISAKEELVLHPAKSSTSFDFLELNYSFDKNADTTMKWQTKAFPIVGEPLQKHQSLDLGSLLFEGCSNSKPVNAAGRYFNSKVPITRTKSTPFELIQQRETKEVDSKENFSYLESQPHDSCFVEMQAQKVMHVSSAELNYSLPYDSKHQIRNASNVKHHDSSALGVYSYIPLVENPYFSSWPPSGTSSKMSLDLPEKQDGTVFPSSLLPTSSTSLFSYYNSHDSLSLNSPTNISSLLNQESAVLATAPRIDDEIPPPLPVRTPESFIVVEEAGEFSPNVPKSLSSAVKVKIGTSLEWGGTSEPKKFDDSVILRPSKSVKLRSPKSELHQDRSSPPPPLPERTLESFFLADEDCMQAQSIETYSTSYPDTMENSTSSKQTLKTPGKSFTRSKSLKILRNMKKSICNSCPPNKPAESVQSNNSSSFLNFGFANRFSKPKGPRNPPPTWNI

[17] = test system: Streptococcus sp. 'group A'; assay: growth inhibition of control SK(-) GAS strain, dose response, counter-screen for streptokinase expression inhibitor project, luminescence, kanamycin, BacTiterGlo, confirmation (AID 1900); format: functional, organism-based
[18] = target: T6, Tyrosine-protein phosphatase non-receptor type 7 (Homo sapiens, UniProt P35236); assay: HePTP (PTPN7) phosphatase inhibitor potency, SAR follow-up, biochemical, set 2 (AID 449736); format: functional
T6 sequence (P35236 whole entry): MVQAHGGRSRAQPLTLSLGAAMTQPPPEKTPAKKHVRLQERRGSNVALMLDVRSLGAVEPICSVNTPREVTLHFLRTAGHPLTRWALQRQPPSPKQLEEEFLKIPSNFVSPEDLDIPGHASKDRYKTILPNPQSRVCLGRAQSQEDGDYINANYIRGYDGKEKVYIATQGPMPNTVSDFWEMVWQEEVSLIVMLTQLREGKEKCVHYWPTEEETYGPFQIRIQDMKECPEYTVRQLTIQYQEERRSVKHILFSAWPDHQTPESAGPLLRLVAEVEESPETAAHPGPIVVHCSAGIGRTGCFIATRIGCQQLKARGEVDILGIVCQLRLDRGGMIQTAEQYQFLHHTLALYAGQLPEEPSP

[19] = inhibitors of firefly luciferase expression or activity, dose response, H4 neuroglioma cells, luminescence (AID 1990); format: functional, cell-based
[20] = Luminescence Cell-Based Dose Response HTS to Identify Inhibitors of 5'UTR Stem-Loop Driven Prion Protein mRNA Translation in H4 Neuroglioblastoma Cells. [Related pubchem assays: 1827 (Project Summary), 1813 (Primary HTS)]; format: functional
[21] = target: T7, G-protein coupled receptor 35 (Homo sapiens, UniProt Q9HC97); assay: SAR Analysis for the identification of Selective Antagonists of ERK1/2 Activity in GPR35-Overexpressing U2OS Cells. [Related pubchem assays: 2079, 2058 ]; format: functional, cell-based
[22] = target: T7, G-protein coupled receptor 35; assay: GPR35 antagonists blocking zaprinast-driven arrestin recruitment, primary screen, imaging, U2OS, beta-arrestin-GFP, zaprinast agonist (AID 2058); format: functional;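 note: antagonist potency meaning inhibition of agonist-induced arrestin redistribution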
HEK293 = assay: SAR analysis of compounds that are cytotoxic to HEK293 - Set 3. [Related pubchem assays (depositor defined):AID1575, AID1578, AID1848, AID1849, AID2001, AID2333, AID2334, AID2335, AID2337, AID2469]; format: functional, cell-based; details: Homo sapiens
[23] = target: Nucleotide-binding oligomerization domain-containing protein 2 (Homo sapiens, UniProt Q9HC29); assay: NOD2 signaling inhibitors, analog potency, SAR follow-up, cell-based, set 3 (AID 2799); format: functional
[24] = target: T8, Nucleotide-binding oligomerization domain-containing protein 1 (Homo sapiens, UniProt Q9Y239); assay: SAR analysis of compounds that inhibit NOD1 - Set 3. [Related pubchem assays (depositor defined):AID1566, AID1575, AID1578, AID1849, AID1852, AID2333, AID2335, AID2466]; format: functional
T8 sequence (Q9Y239 whole entry): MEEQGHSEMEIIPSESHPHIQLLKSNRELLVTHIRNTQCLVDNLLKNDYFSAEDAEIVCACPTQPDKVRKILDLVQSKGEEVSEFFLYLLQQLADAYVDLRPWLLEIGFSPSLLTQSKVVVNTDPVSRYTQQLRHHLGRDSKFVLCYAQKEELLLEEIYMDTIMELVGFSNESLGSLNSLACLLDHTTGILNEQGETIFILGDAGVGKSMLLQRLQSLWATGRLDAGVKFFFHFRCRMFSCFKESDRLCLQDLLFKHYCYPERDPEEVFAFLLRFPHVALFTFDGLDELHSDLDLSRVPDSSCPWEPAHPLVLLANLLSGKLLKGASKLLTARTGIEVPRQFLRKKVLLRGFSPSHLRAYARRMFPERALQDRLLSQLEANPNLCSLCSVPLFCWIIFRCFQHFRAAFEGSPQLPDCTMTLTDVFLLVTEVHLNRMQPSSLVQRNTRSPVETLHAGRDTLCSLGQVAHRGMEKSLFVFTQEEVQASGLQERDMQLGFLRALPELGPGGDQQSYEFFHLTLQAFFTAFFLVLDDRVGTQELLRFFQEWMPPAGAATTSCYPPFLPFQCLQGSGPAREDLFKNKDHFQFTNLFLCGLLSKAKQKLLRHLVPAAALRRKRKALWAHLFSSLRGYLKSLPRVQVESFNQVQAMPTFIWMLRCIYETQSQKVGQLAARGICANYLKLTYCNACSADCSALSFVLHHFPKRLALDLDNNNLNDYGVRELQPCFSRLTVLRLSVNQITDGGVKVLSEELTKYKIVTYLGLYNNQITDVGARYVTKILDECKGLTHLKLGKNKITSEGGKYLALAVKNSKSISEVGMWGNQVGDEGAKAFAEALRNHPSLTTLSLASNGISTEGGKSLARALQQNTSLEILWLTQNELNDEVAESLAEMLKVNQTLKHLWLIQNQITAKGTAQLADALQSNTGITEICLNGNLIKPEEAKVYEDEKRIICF

Tumor necrosis factor = Tumor necrosis factor (Homo sapiens, UniProt P01375); assay: TNFa-triggered NF-kB activation inhibitors, SAR follow-up, cell-based, set 3 (AID 2801); format: functional
[25] = target: Lysine-specific demethylase 4A (Homo sapiens, UniProt O75164); assay: JMJD2A histone demethylase inhibitors, dose response, selectivity assay for GASC-1 inhibitor project, biochemical, DELFIA europium, cherry-picked samples (AID 488840)
Sequence of Lysine-specific demethylase 4A (O75164 whole entry): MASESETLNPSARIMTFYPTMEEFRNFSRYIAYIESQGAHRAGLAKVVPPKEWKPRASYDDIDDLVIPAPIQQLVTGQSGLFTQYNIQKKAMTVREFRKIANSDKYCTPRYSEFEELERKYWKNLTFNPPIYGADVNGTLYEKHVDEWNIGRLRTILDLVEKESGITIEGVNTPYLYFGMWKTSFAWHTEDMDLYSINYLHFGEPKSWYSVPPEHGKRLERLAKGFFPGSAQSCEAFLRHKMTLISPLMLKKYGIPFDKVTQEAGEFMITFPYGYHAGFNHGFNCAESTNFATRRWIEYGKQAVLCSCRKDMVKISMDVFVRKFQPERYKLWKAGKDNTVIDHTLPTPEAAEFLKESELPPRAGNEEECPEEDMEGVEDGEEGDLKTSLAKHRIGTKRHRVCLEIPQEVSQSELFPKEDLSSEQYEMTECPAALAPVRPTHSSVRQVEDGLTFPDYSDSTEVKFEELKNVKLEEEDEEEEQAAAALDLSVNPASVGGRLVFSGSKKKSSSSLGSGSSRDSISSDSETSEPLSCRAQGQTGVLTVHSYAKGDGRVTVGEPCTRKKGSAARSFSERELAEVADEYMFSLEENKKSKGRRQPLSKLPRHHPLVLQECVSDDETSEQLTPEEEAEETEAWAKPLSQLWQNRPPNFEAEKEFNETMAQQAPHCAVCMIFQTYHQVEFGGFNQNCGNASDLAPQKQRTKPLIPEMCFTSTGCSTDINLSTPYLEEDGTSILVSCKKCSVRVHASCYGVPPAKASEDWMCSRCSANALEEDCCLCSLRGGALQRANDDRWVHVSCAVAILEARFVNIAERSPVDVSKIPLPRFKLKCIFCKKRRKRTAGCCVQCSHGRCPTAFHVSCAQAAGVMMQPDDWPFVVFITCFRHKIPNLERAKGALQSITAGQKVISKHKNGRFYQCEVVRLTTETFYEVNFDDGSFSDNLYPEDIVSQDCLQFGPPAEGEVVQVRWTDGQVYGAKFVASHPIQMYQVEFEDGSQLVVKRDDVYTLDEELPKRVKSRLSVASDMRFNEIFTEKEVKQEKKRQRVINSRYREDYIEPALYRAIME

T1 sequence (P41145 whole entry): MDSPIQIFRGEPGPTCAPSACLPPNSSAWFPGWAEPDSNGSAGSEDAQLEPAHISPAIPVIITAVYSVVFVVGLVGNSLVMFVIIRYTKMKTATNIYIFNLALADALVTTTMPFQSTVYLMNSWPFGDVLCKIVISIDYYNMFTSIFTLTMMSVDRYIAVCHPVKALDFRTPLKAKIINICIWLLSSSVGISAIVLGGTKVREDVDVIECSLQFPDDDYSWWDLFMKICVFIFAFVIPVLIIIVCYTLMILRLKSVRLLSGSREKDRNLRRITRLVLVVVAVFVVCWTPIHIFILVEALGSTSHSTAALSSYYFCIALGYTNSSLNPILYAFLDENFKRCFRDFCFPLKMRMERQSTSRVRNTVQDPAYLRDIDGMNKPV
T3 sequence (P41143 whole entry): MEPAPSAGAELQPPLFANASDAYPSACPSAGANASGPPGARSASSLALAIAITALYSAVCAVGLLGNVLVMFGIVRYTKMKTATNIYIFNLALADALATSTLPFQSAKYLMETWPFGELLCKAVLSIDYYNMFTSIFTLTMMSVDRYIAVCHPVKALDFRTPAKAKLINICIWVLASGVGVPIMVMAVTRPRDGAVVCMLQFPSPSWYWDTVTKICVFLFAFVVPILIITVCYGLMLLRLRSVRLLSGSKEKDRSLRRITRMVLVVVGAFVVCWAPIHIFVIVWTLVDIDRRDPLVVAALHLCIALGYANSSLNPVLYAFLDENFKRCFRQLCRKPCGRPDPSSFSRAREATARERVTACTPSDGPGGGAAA
T2 sequence (P35372 whole entry): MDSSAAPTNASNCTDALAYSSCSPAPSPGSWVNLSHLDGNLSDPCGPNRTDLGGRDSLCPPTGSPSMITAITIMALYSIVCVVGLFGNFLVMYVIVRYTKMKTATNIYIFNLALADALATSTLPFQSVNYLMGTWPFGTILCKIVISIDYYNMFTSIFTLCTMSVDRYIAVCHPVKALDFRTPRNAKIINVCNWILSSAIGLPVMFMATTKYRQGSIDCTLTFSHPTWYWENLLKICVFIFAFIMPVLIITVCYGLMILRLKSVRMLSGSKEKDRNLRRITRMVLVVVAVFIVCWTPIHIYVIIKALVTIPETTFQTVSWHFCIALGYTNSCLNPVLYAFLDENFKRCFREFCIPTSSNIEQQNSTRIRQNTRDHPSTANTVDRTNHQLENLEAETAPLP
T7 sequence (Q9HC97 whole entry): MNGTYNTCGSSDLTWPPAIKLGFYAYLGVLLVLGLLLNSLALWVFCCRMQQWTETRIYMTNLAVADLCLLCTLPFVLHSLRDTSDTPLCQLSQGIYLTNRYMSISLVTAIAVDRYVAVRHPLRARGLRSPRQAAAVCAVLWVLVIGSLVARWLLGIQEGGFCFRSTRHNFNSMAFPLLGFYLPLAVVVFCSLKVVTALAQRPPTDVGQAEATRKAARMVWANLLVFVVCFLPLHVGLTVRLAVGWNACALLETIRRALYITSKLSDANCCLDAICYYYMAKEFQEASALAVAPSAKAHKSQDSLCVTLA
Sequence of G-protein coupled receptor 55 (Q9Y2T6 whole entry): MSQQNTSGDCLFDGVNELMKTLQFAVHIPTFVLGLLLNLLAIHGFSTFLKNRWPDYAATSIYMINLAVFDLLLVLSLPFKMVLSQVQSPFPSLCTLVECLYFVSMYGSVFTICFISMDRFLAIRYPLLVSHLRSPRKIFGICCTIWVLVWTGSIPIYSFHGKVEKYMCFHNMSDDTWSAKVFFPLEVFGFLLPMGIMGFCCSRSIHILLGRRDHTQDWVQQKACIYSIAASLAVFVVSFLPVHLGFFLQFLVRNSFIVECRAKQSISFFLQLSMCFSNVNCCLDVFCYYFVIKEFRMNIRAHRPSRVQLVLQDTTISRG
Sequence of Tumor necrosis factor (P01375 whole entry): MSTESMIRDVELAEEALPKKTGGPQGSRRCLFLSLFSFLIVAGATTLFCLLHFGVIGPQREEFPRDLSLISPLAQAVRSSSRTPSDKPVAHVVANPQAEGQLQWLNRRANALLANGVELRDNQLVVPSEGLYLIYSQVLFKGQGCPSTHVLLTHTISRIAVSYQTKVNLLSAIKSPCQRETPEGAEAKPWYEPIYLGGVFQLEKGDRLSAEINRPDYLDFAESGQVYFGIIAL
Sequence of Nucleotide-binding oligomerization domain-containing protein 2 (Q9HC29 whole entry, the tested form may be a part): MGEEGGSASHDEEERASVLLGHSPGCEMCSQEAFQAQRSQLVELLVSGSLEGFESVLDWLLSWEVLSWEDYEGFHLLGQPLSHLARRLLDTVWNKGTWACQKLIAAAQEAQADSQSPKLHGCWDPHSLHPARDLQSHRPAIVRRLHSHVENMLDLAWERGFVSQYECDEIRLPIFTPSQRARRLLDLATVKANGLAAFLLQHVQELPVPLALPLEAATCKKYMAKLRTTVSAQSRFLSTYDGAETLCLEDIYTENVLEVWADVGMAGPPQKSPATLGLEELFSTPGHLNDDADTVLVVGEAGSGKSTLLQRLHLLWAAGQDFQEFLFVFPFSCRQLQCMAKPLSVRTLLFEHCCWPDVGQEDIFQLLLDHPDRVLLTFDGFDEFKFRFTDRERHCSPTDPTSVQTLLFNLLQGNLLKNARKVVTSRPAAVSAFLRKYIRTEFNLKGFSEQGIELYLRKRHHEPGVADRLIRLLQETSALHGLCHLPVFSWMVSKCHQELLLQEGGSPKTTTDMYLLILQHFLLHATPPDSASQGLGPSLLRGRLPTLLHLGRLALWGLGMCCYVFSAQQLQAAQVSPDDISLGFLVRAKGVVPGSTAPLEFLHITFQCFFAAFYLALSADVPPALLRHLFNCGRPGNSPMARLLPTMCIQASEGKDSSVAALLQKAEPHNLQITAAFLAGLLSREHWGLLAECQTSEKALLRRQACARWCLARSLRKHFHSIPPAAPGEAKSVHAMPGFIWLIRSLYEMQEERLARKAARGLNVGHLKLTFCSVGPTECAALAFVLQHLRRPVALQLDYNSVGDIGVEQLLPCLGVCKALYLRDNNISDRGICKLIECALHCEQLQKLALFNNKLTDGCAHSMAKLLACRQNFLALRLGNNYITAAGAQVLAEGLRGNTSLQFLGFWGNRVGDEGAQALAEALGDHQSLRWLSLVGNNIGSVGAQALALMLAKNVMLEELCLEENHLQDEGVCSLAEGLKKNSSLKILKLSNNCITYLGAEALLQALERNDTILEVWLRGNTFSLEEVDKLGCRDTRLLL
Sequence of Tyrosine-protein phosphatase non-receptor type 12 (Q05209 whole entry): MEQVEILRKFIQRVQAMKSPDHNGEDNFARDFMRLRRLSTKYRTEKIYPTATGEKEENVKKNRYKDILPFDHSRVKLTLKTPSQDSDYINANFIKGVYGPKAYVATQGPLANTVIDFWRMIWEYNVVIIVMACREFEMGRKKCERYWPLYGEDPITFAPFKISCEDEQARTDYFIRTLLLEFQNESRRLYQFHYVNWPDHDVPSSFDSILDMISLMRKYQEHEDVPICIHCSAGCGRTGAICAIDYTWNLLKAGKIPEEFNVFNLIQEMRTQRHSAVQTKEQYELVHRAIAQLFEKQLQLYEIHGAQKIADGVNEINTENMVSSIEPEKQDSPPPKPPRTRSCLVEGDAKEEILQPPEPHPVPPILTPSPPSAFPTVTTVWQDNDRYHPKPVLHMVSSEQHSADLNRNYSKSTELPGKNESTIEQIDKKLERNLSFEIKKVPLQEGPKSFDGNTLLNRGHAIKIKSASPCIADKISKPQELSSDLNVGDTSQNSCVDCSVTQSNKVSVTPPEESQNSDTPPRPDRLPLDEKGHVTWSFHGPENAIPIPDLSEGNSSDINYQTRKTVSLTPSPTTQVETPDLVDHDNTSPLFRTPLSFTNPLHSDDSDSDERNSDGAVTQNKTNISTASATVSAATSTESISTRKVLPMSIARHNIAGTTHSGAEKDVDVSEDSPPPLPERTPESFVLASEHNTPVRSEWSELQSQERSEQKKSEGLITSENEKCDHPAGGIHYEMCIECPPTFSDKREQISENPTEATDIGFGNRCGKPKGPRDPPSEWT

SMILES: C(=C\c1ccccc1)/CSc1nnc(-c2ccccn2)n1Cc1ccco1
- EC50 [1]: 2.22 µM (active)
- EC50 (Mu-type opioid receptor [2]): > 32 µM (inactive)
- EC50 [3]: > 32 µM (inactive)
- EC50 [4]: 1.43 µM (active)
- IC50 [5]: > 32 µM (inactive)
- EC50 [6]: 3.18 µM
- EC50 (Mu-type opioid receptor [7]): > 32 µM (inactive)
- EC50 [8]: 5.22 µM
- EC50 [9]: > 32 µM (inactive)
- IC50 (Mu-type opioid receptor [10]): > 32 µM (inactive)
- IC50 [11]: > 32 µM (inactive)
- IC50 [12]: > 32 µM (inactive)

SMILES: CCc1ccc(/C=C2\SC(=S)N(CCCC(=O)Nc3ccc(C(=O)O)cc3)C2=O)cc1
- IC50 [13]: 9.28 µM (active)
- EC50 (Streptococcus): > 150 µM (not active)
- EC50 [14]: 3.67 µM (active)
- IC50 [15]: 17.3 µM (inactive)
- EC50 (Streptokinase A): > 150 µM (not active)
- IC50 [16]: 76.8 µM (active)
- EC50 [17]: 7.29 µM (active)
- IC50 [18]: 0.581 µM (active)
- EC50 [19]: 0.248 µM (active)
- EC50 [20]: 7.61 µM (active)
- IC50 [21]: 0.636 µM (active)
- IC50 [22]: < 0.5 µM (active)

SMILES: Nc1nc2ccccc2n1S(=O)(=O)c1ccc(Cl)c(Cl)c1
- IC50 (HEK293): > 20 µM (inactive)
- IC50 [23]: > 20 µM (inactive)
- IC50 [24]: 0.529 µM (active)
- IC50 (Tumor necrosis factor): > 20 µM (inactive)

SMILES: Cc1ccc(S(=O)(=O)Nc2ccc3c(c2)CC(=O)N([C@H](C)CO)C[C@@H](C)[C@H](CN(C)S(=O)(=O)c2ccccc2)O3)cc1
- AC50 [25]: > 60 µM (inactive)
